Values quoted from earlier work as cited in patent publication US20060286183A1, “Diet supplement for causing rapid weight loss, controlling appetite, managing stress, supporting relaxation, combating fatigue and supporting mental well-being” (priority 2005, published 2006).
Values belong to the compound of their own block, whether it stands above or below them.

Columns and labels:
[1] = test system: forebrain ischemia; settings: ischemia maintained for 10 minutes
[2] = stroke patients
[3] = elderly patients
[4] = patients with mild to moderate psychosyndromes such as dementia
[5] = healthy women, three-day supplementation
[6] = rat, administration of NOPE
[7] = obese rats
[8] = rats
[9] = biological target: T1, ATP:citrate lyase (Homo sapiens, UniProt P53396)
T1 sequence (P53396 1-1101): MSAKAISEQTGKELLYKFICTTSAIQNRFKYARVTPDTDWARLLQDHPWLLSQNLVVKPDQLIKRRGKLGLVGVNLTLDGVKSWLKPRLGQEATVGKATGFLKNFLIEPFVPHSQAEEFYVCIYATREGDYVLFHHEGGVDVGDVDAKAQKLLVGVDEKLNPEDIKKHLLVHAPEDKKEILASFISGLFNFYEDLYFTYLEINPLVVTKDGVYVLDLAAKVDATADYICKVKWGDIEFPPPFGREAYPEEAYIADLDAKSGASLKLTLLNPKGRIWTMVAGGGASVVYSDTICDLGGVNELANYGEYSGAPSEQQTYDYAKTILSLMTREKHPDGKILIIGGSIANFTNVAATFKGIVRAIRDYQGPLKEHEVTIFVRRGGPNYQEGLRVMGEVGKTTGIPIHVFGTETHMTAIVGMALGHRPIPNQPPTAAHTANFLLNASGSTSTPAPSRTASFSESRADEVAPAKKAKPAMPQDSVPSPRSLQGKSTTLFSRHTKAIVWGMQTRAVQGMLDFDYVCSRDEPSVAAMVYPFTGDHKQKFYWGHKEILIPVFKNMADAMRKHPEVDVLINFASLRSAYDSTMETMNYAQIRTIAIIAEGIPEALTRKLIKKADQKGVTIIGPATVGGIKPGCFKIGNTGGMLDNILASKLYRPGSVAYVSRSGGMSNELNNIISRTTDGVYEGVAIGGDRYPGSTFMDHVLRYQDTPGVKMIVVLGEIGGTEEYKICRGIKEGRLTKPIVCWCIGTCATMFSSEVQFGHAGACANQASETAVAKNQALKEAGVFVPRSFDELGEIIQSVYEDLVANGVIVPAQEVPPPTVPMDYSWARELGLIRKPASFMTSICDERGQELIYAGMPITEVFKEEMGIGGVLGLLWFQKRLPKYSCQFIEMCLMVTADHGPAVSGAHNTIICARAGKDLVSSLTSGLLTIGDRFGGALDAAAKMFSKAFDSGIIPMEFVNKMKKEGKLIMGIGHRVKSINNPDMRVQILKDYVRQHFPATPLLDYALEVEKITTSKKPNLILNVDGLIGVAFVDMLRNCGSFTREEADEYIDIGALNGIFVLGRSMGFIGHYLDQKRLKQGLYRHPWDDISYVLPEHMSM

[10] = humans
[11] = during exercise, untrained men and women
[12] = in vivo
[13] = during fatigue
[14] = not given; remark: listed apart in the source
[15] = in vivo; remark: listed apart in the source
[16] = rats; remark: listed apart in the source
[17] = test system: ATP; settings: calorie restriction
[18] = animals
[19] = humans; remark: listed apart in the source
[20] = test system: 5-alpha-reductase
[21] = compared with vitamin C and E
[22] = lean and obese rats
[23] = biological target: T2, catechol-O-methyl-transferase (COMT) (Homo sapiens, UniProt P21964)
T2 sequence (P21964 1-271): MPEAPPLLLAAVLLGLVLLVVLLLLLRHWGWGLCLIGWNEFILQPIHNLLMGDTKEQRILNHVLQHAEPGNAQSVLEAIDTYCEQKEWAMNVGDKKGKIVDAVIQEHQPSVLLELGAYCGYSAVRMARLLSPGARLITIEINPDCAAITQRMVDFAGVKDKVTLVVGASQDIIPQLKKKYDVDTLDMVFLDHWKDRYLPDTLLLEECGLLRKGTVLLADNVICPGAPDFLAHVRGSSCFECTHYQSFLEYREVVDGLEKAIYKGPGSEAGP

[24] = biological target: glutamate dehydrogenase (Homo sapiens, UniProt P00367)
glutamate dehydrogenase, sequence (P00367 54-558): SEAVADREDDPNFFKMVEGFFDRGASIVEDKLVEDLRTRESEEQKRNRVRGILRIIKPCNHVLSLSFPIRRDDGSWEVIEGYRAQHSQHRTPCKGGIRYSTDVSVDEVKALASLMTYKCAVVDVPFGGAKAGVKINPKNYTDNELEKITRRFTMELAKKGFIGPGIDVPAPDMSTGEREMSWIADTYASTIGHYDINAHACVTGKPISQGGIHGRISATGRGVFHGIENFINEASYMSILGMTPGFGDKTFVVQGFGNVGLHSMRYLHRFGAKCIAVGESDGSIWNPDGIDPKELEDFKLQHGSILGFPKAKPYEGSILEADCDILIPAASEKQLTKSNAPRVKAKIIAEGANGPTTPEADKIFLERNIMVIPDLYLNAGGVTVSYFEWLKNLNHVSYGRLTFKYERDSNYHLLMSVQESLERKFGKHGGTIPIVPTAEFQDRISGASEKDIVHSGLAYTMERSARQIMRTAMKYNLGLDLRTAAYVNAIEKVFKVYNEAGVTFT

Compound: CCOC(=O)C1=C[C@]2(CC)CCCN3CCc4c(n1c1ccccc41)[C@@H]32 [Vinpocetine]
brain cell damage [1]: prevent brain cell damage
cerebral blood flow [2]: increase cerebral blood flow
improvement in chronic cerebral dysfunction [3]: significant improvement
cognitive performance [4]: cognitive performance improved
memory [5]: improvement in the memory

Compound: N-olyl-phosphatidyl ethanolamine [NOPE]
appetite and weight [6]: causes appetite suppression and subsequent weight loss
body weight [7]: lower body weight

ATP:citrate lyase inhibition [9]: competitive inhibitor
Compound: O=C(O)CC(O)(C(=O)O)C(O)C(=O)O (stereo not drawn) [HCA, Hydroxycitric acid]
fatty acid synthesis and appetite [8]: inhibit fatty acid synthesis and repress appetite
caloric intake [10]: reduce caloric intake
fat oxidation [11]: increase fat oxidation during exercise
serotonin levels [12]: significantly increased

Compound: N[C@@H](Cc1ccc(O)cc1)C(=O)O [Tyrosine]
mood and cognitive performance (periods of stress): improve mood and cognitive performance
blood pressure and cognition (under stress): reduction in blood pressure in addition to cognitive improvement
mental performance [13]: improve

Compound: [Cr] [Chromium]
lean mass ([14]; clinical): increase lean mass
body fat ([14]; combined with exercise): reduce body fat
HDL cholesterol [15]: increase HDL

Compound: C/C=C(\C)C(=O)O[C@@H]1C[C@H]2[C@@H](CC=C3C[C@@H](O[C@H]4C[C@H](OC)[C@H](O[C@H]5C[C@H](OC)[C@H](O[C@@H]6O[C@H](C)[C@@H](O)[C@H](OC)[C@H]6O)[C@@H](C)O5)[C@@H](C)O4)CC[C@@]32C)[C@@]2(O)CC[C@H](C(C)=O)[C@@]12C [Example P57]
food intake [16]: reduce food intake
ATP [17]: countered the reduction in ATP normally expected from calorie restriction

5-alpha-reductase inhibition [20]: inhibiting 5-alpha-reductase
Compound: CC1=C(/C=C/C(C)=C/C=C/C(C)=C/C=C/C=C(C)/C=C/C=C(C)/C=C/C2=C(C)C(=O)[C@@H](O)CC2(C)C)C(C)(C)C[C@H](O)C1=O [Astaxanthin]
exercise-induced muscle damage [18]: attenuate exercise-induced muscle damage
safety [19]: safe

Compound: O=C(O[C@@H]1Cc2c(O)cc(O)cc2O[C@@H]1c1cc(O)c(O)c(O)c1)c1cc(O)c(O)c(O)c1 [EGCG, (−)-Epigallocatechin-3-gallate]
antioxidant activity [21]: greater than many well known and established antioxidants
food intake, body weight, cholesterol and triglycerides [22]: effective at reducing food intake, body weight, cholesterol and triglycerides
COMT inhibition [23]: inhibitor
glutamate dehydrogenase inhibition [24]: inhibitor of glutamate dehydrogenase
